Experimental data published in US6534486B1, “2-(purin-9-yl)-Tetrahydrofuran-3,4-diol derivatives” (SmithKline Beecham Corporation, priority 1998, dated 2003).

Key:
Assay type in all cases: cell-based
Conditions in all cases: ratio of EC50 to that of NECA, CHO cells transfected with human receptor, SPAP readout
[1] = biological target: human adenosine 2a receptor (Homo sapiens, UniProt P29274); test: Agonist activity at adenosine 2a receptor, CHO cells with CRE-SPAP reporter (basal cAMP)
Method: (§1) (1) Agonist activity against adenosine 2a, adenosine 1 and adenosine 3 receptor subtypes.
(§2) Agonist selectivity of compounds against other human adenosine receptors was determined using Chinese hamster ovary (CHO) cells transfected with the gene for the relevant human adenosine receptor following a method based on that of Castanon and Spevak, 1994. The CHO cells were also transfected with cyclic AMP response elements promoting the gene for secreted placental alkaline phosphatase (SPAP) (Wood, 1995). The effect of test compounds was determined by their effects on basal levels of cAMP (A2a) or on forskolin-enhanced cAMP (A1 and A3) as reflected by changes in levels of SPAP. EC50 values for compounds were then determined as a ratio to that of the non-selective agonist N-ethyl carboxamide adenosine (NECA).

[2] = biological target: T1, human adenosine 3 receptor (Homo sapiens, UniProt P0DMS8); test: Agonist activity at adenosine 3 receptor, CHO cells with CRE-SPAP reporter (forskolin-enhanced cAMP)
T1 sequence (P0DMS8 1-318): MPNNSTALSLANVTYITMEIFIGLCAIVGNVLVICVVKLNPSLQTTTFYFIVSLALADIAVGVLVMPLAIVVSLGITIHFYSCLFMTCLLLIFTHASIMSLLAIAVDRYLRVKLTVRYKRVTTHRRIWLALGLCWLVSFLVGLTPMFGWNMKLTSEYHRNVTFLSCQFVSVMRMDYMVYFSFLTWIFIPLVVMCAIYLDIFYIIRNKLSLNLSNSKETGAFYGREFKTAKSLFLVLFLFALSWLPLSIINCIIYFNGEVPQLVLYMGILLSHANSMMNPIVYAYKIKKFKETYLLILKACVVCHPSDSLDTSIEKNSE
Method: as §1, §2

[3] = biological target: T2, human adenosine 1 receptor (Homo sapiens, UniProt P30542); test: Agonist activity at adenosine 1 receptor, CHO cells with CRE-SPAP reporter (forskolin-enhanced cAMP)
T2 sequence (P30542 1-326): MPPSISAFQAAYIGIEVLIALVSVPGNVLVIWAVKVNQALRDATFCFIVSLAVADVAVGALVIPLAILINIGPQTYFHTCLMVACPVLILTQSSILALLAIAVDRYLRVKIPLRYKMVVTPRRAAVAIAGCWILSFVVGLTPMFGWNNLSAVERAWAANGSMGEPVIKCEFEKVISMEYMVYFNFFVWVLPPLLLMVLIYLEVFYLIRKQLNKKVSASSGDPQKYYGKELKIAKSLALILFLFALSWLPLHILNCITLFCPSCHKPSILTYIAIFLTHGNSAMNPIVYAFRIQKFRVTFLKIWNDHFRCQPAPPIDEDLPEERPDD
Method: as §1, §2

Sequence of human adenosine 2a receptor (P29274 whole entry): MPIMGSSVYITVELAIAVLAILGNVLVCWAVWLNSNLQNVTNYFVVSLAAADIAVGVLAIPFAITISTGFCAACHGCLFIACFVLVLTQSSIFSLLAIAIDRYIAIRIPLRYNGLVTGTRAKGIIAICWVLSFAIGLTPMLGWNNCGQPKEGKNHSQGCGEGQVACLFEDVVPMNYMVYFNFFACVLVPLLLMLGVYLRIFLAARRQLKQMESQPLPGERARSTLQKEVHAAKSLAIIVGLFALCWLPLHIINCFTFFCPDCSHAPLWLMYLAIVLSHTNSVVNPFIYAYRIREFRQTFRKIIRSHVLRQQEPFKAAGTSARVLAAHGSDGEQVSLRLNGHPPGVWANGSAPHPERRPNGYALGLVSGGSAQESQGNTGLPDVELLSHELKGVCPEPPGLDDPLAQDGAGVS

N[C@H]1CC[C@H](Nc2nc(NCC(c3ccccc3)c3ccccc3)c3ncn([C@@H]4O[C@H](Cn5nccn5)[C@@H](O)[C@H]4O)c3n2)CC1.O=CO [Example 1, (2R,3R,4S, 5R)-2-[2-(trans-4-Amino-cyclohexylamino)6-(2,2-diphenyl-ethylamino)-purin-9-yl]-5-[1,2,3]triazol-2-ylmethyl-tetrahydro-furan-3,4-diol formate]
A2a, EC50 values as a ratio of that of NECA [1]: 17.1
A3, EC50 values as a ratio of that of NECA [2]: >656
A1, EC50 values as a ratio of that of NECA [3]: >=3969

OC1C(Cn2cncn2)OC(n2cnc3c(NCC(c4ccccc4)c4ccccc4)nc(NC4CCNC4)nc32)C1O [Example 2, (2R,3R,4S,5R)-2-[6-(2,2-Diphenyl-ethylamino)-2-(pyrrolidin-3R-ylamino)-purin-9-yl]-5-[1,2,4]triazol-1-ylmethyl-tetrahydro-furan-3,4-diol diformate]
A2a, EC50 values as a ratio of that of NECA [1]: 14.4
A3, EC50 values as a ratio of that of NECA [2]: >152
A1, EC50 values as a ratio of that of NECA [3]: >8479

Cn1cnc(CCNc2nc(NCC(c3ccccc3)c3ccccc3)c3ncn(C4OC(Cn5nccn5)C(O)C4O)c3n2)c1 [Example 3, (2R,3R,4S,5R)-2-{6-(2,2-Diphenyl-ethylamino)-2-[2-(1-methyl-1-H-imidazol-4-yl)-ethylamino]-purin-9-yl}-5-[1,2,3]triazol-2-ylmethyl-tetrahydro-furan-3,4-diol diformate]
A2a, EC50 values as a ratio of that of NECA [1]: 1.31
A3, EC50 values as a ratio of that of NECA [2]: >147
A1, EC50 values as a ratio of that of NECA [3]: 3038.8

O=CO.O[C@@H]1[C@H](O)[C@@H](Cn2nccn2)O[C@H]1n1cnc2c(NCC(c3ccccc3)c3ccccc3)nc(NCCN3CCOCC3)nc21 [Example 4, (2R,3R,4S,5R)-2-[6-(2,2-Diphenyl-ethylamino)-2-(2-morpholin-4-yl-ethylamino)-purin-9-yl]-5-[1,2,3]triazol-2-ylmethyl-tetrahydro-furan-3,4-diol formate]
A2a, EC50 values as a ratio of that of NECA [1]: 16.9
A3, EC50 values as a ratio of that of NECA [2]: >174
A1, EC50 values as a ratio of that of NECA [3]: 1014

Cn1cnc(CCNc2nc(NCC(c3ccccc3)c3ccccc3)c3ncn([C@@H]4O[C@H](CN5C(=O)CNC5=O)[C@@H](O)[C@H]4O)c3n2)c1.O=CO.O=CO [Example 5, 3-(5R-{6-(2,2-Diphenyl-ethylamino)-2-[2-(1-methyl-1-H-imidazol-4-yl)-ethylamino]-purin-9-yl}3S,4R-dihydroxy-tetrahydro-furan-2R-ylmethyl)-imidazolidine-2,4-dione diformate]
A2a, EC50 values as a ratio of that of NECA [1]: 13.46
A3, EC50 values as a ratio of that of NECA [2]: >270
A1, EC50 values as a ratio of that of NECA [3]: 8479

OC1CCCC1Nc1nc(NCC(c2ccccc2)c2ccccc2)c2ncn(C3OC(Cn4cncn4)C(O)C3O)c2n1 [Example 6, (2R,3R,4S,5R)-2-[6-(2,2-Diphenyl-ethylamino)-2-(2R-hydroxy-cyclopent-(R)-ylamino)-purin-9-yl]-5-[1,2,4]triazol-1-ylmethyl-tetrahydro-furan-3,4-diol format]
A2a, EC50 values as a ratio of that of NECA [1]: 23.7
A3, EC50 values as a ratio of that of NECA [2]: >274
A1, EC50 values as a ratio of that of NECA [3]: >=3397
